Results published in PubChem BioAssay AID1996.
Values after ≈ are worked out from the molar mass of the structure shown.

settings: buffer; pH 7.4; 200.0 µM

| Structure (SMILES) | solubility kinetic |
| --- | --- |
| O=C(NCc1ccc(Cl)cc1)N1CCOCC1 | > 38.2 µg/mL |
| Cc1ccccc1N1CCN(Cc2nc(Cc3ccccc3)no2)CC1 | 11 µg/mL (≈ 31.6 µM) |
| Cc1cccc(C)c1NC(=S)N1CCCCCC1 | > 39.4 µg/mL |
| CN(c1ccc(OCC(=O)Nc2cc(Cl)ccc2C(=O)O)cc1)S(=O)(=O)c1ccc(F)cc1 | > 73.9 µg/mL |
| CC(C)CCc1noc(CN(C)CCC2CCOCC2)n1 | > 44.3 µg/mL |
| CCCS(=O)(=O)c1ccc(COC(=O)c2ccc(NC(C)=O)cc2)cc1 | 25.5 µg/mL (≈ 67.9 µM) |
| Cc1ccc(CNC(=O)CN2C(=O)NC3(CCCC3)C2=O)cc1 | 43.6 µg/mL (≈ 138 µM) |
| C=C(C)Cn1c(CCNC(=O)c2ccco2)nc2ccccc21 | > 46.4 µg/mL |
| Cc1occc1C(=O)N(C)Cc1nc(-c2ccccc2)no1 | 40.9 µg/mL (≈ 138 µM) |
| O=C(NCCN1CCOCC1)c1ccc(Cl)c(Cl)c1 | 43.5 µg/mL (≈ 143 µM) |
| NCCc1cnc[nH]1 | 14.1 µg/mL (≈ 127 µM) |
| CCCC1C(=O)Nc2ccccc2N1C(=O)c1cccc(C)c1 (centres undefined) | > 46.3 µg/mL |
| COc1cc(/C=C(\C#N)C(N)=O)ccc1OCc1c(C)no[n+]1[O-] | 14.6 µg/mL (≈ 44.2 µM) |
| O=C1CN(C(=O)CSc2nncs2)c2ccccc2N1 | > 46 µg/mL |
| CC(NC(=O)C(=O)NCCc1c[nH]c2ccccc12)c1ccccc1 (centres undefined) | < 0.2 µg/mL |
| O=C(COC(=O)Cc1ccc(S(=O)(=O)N2CCOCC2)s1)Nc1ccccc1 | 57 µg/mL (≈ 134 µM) |
| Nc1c(C(=O)N2CCCC2)sc2nc3c(cc12)CCCCCC3 | 3.2 µg/mL (≈ 9.71 µM) |
| O=C1NC(=O)/C(=C\c2cn(Cc3ccccc3F)c3ccccc23)N1 | 0.8 µg/mL (≈ 2.39 µM) |
| Cc1cc(=O)[nH]c(SCC(=O)NCC2CCCO2)n1 (centres undefined) | > 42.5 µg/mL |
| Clc1cccc(Cl)c1CN1CCN(c2ncccn2)CC1 | 17.2 µg/mL (≈ 53.2 µM) |
| COc1ccc(CCNCc2cccn2C)cc1OC.Cl | > 46.6 µg/mL |
| Cc1cn(CCC(=O)Nc2ccc(N3CCOCC3)cc2)c2ccccc12 | 46.7 µg/mL (≈ 128 µM) |
| Cc1nc2ccc(C(=O)Nc3ccccc3Cl)cc2s1 | 14.2 µg/mL (≈ 46.9 µM) |
| CN(CCC#N)C(=O)COc1ccc(Br)cc1Cl | > 49.7 µg/mL |
| CN(Cc1cn(C)nc1-c1ccccc1F)Cc1nccn1C | > 47 µg/mL |
| CCOc1ccc(NC(=O)[C@@H](NC(=O)c2ccco2)C(C)C)cc1 | > 49.6 µg/mL |
| COC(=O)c1sccc1NC(=O)C1CC1 | 21.8 µg/mL (≈ 96.8 µM) |

| Structure (SMILES) | solubility kinetic |
| --- | --- |
| Cc1nc(C)c(C(=O)OCC(=O)NCc2ccccc2)s1 | > 45.7 µg/mL |
| Cc1cccc(C(=O)OCC(=O)N2CCCCCC2)c1 | > 41.3 µg/mL |
| CCN(CC)CCOC(=O)c1ccc([N+](=O)[O-])cc1.Cl | > 45.4 µg/mL |
| Cc1cc(C)n(CC(=O)NCc2ccccc2)c(=O)c1C#N | 43.5 µg/mL (≈ 147 µM) |
| O=[N+]([O-])c1c(Nc2ccc(Br)cc2)ccc2nonc12 | < 0.2 µg/mL |
| O=C(COC(=O)c1ccc(Cl)nc1)NCCc1ccc(F)cc1 | > 50.5 µg/mL |
| OCCNc1nc(-c2ccccc2)c2cc(Br)ccc2n1 | 24.2 µg/mL (≈ 70.3 µM) |
| CCOc1ccc(N2CC(C(=O)NC3CCSC3=O)CC2=O)cc1 (centres undefined) | 42.6 µg/mL (≈ 122 µM) |
| CN1CCN(S(=O)(=O)c2ccccc2)C(c2ccccc2)C1 (centres undefined) | 44.2 µg/mL (≈ 140 µM) |
| CCC(=O)OCCn1c(=O)c2ccccc2c2ccccc2c1=O | > 48.5 µg/mL |
| O=C(NC(Cc1ccc(O)cc1)C(=O)O)c1ccco1 (centres undefined) | > 41.3 µg/mL |
| Cc1cn(Cc2ccccc2Cn2cc(C)c(=O)[nH]c2=O)c(=O)[nH]c1=O | 52.3 µg/mL (≈ 148 µM) |
| COc1ccc(Nc2nc(C)nc3c2oc2ccccc23)c(OC)c1 | < 0.2 µg/mL |
| COc1ccc(Br)cc1CNCCc1ccc2c(c1)OCO2 | 52.3 µg/mL (≈ 144 µM) |
| CC(=O)/C(C=Nc1noc(C)c1Br)=C(\C)O | 37.6 µg/mL (≈ 131 µM) |
| CSCC[C@H](NC(=O)Nc1ccccc1C)C(=O)O | > 42.4 µg/mL |
| Cc1cccc(C(=O)O/N=C(/c2ccccc2)c2ccncc2)c1 | < 0.3 µg/mL |
| O=C(CSc1nc(-c2ccccc2)cc(=O)[nH]1)Nc1ccccc1F | < 0.2 µg/mL |
| Cc1ccc(SCC(=O)OCC(=O)Nc2ccc3[nH]c(=O)[nH]c3c2)cc1C | 5.8 µg/mL (≈ 15 µM) |
| COc1ccc(/C=C2/C(=O)ON=C2C)cc1Cl | 23.6 µg/mL (≈ 93.8 µM) |
| CCn1c(COc2ccccc2OC)nc2ccccc21 | 41.9 µg/mL (≈ 148 µM) |
| Cc1cc(C)nc(SCc2ccc(F)cc2)n1 | 10 µg/mL (≈ 40.3 µM) |
| CC1(C)CC(C(=O)Nc2ccccc2)C(=O)O1 (centres undefined) | > 35 µg/mL |
| CCn1cc(C2=NC(CC(C)C)CO2)c2ccccc21 (centres undefined) | 9.7 µg/mL (≈ 35.9 µM) |
| CCOC(=O)CC1COc2ccccc2N1C(=O)c1ccc(F)cc1 (centres undefined) | 47 µg/mL (≈ 137 µM) |
| CC(C)(C)C(=O)Nc1nc2cc3c(cc2s1)OCO3 | 0.6 µg/mL (≈ 2.16 µM) |
| CCC(C)c1ccccc1NC(=O)c1[nH]c(C)c(C(C)=O)c1C (centres undefined) | 2 µg/mL (≈ 6.4 µM) |
